Tests used:
[1] = biological target: T1, abietadiene synthase (AgABS) (Abies grandis, UniProt Q38710); assay type: biochemical
T1 sequence (Q38710 71-868): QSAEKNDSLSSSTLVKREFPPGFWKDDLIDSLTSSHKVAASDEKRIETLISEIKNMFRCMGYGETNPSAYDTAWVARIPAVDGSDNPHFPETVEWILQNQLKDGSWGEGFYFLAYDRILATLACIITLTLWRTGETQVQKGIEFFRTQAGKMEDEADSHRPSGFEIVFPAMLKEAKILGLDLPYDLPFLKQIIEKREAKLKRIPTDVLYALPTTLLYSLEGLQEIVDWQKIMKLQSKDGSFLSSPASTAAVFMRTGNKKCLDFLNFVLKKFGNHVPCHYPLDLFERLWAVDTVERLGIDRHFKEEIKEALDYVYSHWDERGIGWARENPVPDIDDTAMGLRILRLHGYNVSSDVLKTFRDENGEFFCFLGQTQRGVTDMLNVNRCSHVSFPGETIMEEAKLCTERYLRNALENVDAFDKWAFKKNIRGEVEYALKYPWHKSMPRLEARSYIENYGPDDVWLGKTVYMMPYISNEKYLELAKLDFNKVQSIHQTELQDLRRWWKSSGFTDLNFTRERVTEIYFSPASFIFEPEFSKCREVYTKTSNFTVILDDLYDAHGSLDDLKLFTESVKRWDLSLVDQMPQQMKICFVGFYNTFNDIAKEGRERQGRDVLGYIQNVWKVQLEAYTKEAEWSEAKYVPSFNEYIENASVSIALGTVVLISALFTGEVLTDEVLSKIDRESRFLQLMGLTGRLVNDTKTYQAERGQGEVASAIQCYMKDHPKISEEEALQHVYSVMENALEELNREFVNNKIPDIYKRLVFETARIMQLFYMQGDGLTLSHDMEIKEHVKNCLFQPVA

[2] = biological target: T2, M. tuberculosis Rv3377c (halimadienyl diphosphate synthase) (Mycobacterium tuberculosis, UniProt O50406); assay type: biochemical
T2 sequence (O50406 1-501): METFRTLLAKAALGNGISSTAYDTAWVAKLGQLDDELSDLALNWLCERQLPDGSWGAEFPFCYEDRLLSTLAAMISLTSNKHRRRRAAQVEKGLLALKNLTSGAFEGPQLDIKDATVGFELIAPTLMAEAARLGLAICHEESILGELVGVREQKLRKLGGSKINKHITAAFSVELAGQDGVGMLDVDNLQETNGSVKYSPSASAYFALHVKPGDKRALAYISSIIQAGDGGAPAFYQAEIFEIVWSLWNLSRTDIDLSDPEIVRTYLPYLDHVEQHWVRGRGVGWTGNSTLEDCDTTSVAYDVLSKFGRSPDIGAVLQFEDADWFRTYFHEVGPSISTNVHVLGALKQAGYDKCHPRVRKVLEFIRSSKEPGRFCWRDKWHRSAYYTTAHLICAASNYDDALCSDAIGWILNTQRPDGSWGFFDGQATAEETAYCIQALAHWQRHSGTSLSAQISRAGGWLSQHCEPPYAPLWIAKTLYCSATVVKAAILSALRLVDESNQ

Compound	effect on ABS activity [1]	activity against the M. tuberculosis protein (Rv3377c) [2]	also measured
O=P(O)(O)C(O)(Cc1cnc2ccccn12)P(=O)(O)O [minodronate]	no effect	no activity	
O=P(O)(O)C(O)(Cn1ccnc1)P(=O)(O)O [zoledronate]	no effect	no activity	
C/C(=C\CC/C(C)=C/COP(=O)(O)OP(=O)(O)O)CC/C=C(\C)CCCN(C)C [15-aza-GGPP]			IC50 ([2]; read-out: Rv3377c inhibition (quantity not given)): 5 nM
CC(C)=CCCC(C)=CCCC(C)=CCC(P(=O)(O)O)P(=O)(O)O [BPH-850, farnesylmethylene bisphosphonate]			comparison of IC50 using GGPP or CPP as substrate, ABS ([1]; GGPP versus CPP as substrate): about the same IC50
C=CCN(C)CCCCCCCCCCCCCCCC(=O)OC [BPH-922]			IC50 [1]: 250 nM

— PMC3805035 (Proteins, 2010)
